US20100266577A1, “Method of Cancer Treatment with Antagonists of FAS Inhibitors” (priority 2007, published 2010)

Tested on: BJAB cells
Assay: Fc:FasL-induced apoptosis with CD74-derived peptides
Type: cell-based
Conditions: after 24 hours, compared to buffer- and unrelated peptide-treated cells
Excerpt: A membrane proximal region of CD74-derived peptides disrupts CD74-Fas complexes. […] The CH-11 binding site was mapped to the membrane-proximal CRD3-domain of Fas.^10 We thus predicted that the membrane-proximal region of CD74 may be involved in the interaction with Fas. We designed four 20 amino acids long peptides with five amino acid overlaps spanning this region of CD74 (FIG. 16A).
The goal of this example was to design and identify peptides that compete with the Fas-CD74 complex in order to enhance Fas-mediated apoptosis. […] In order to better define competing peptides and peptides with apoptosis activity, we tested shorter peptides. We incubated seven amino acid length peptides (7mer 1, 7mer 2, and 7mer3) with BJAB cells and then stimulated apoptosis using recombinant Fas ligand (Fc:FasL).

GRLDKLT [7mer 2]
Fas ligand-induced apoptosis (7mer peptides): significantly enhanced levels of Fas ligand-induced apoptosis

QQQGRLD [7mer 1]
Fas ligand-induced apoptosis (7mer peptides): significantly enhanced levels of Fas ligand-induced apoptosis

DKLTVTS [7mer 3]
Fas ligand-induced apoptosis (7mer peptides): significantly enhanced levels of Fas ligand-induced apoptosis
